From patent US20200129630A1, “METHODS FOR TREATING CANCER” (BicycleRD Limited, priority 2018, published 2020)
Like-named read-outs stand apart in the source and are kept apart here. Numbered stars: 1 amine (or outer) side, 2 acyl side, 3 side chain; on linkers, the order of the positions; unused ones are H or OH. Bridge positions count the residues as written; N and C are the ends. Square brackets hold non-standard residues; d marks the D form. Peptide text beside a SMILES is read from it. 1Nal = N[C@@H](Cc1cccc2ccccc12)C(=O)O; TBMB = c1c(C[*:1])cc(C[*:3])cc1C[*:2]; Tle = CC(C)(C)[C@H](N)C(=O)O; βAla = NCCC(=O)O; Sar = CNCC(=O)O

What was measured:
NSCLC = conditions: second-line treatment, PD-1 checkpoint blockade; cited from earlier work
[1] = rat; previously reported; cited from earlier work
[2] = human; previously reported; cited from earlier work
[3] = monkey; previously reported; cited from earlier work
[4] = [^3H]-DM1 200 μg/kg IV, rat; cited from earlier work
[5] = test system: HER2 positive breast cancer; conditions: third-line, HER2 positive population; cited from earlier work
[6] = test system: MT1 MMP-expressing NSCLC PDX models; experiment: MT1-MMP-expressing NSCLC PDX models, docetaxel-sensitive and -resistant; type: in vivo; conditions: 60 mg/m^2 once weekly
Excerpt: Furthermore, BT1718 produced an anti-tumor effect against MT1 MMP-expressing NSCLC PDX models irrespective of their sensitivity to the SOC chemotherapeutic docetaxel. […] The PDX models confirm that MT1-MMP expression is necessary for BT1718 anti-tumor activity.

NMB selected tumors = conditions: cited from earlier work
MMP1, MMP2 and MMP9 = experiment: Effect on related MMP catalytic activity; type: biochemical
Experimental: (§1) Bicycle drug conjugates (BDCs) with a variety of linkers and cytotoxic payloads were prepared which retained binding to MT1.

[7] = in vitro immunogenicity tests, n=50
Excerpt: These include in vitro tissue microarray in human, rat and monkey tissues and in vitro and in vivo assessment of immunogenicity. In vivo assessments include single dose toxicity in mice and rats, multiple dose range finding studies in mice, rats, dogs and monkeys (non-GLP) and GLP-compliant multiple dose studies in rats and monkeys consisting of 28-day on study phase with a 28-day recovery period.

MT1-MMP = MT1-MMP (Homo sapiens, UniProt P50281); experiment: Effect on catalytic (proteolytic) activity of MT1-MMP; type: biochemical; conditions: in vitro
Experimental: as §1
(§2) BT1718 is a BDC that binds to MT1-MMP and upon cleavage of its disulphide linker, releases the cytotoxic tubulin inhibitor, DM1 (also referred to as DM1-SH).

[8] = Intrinsic clearance in cryopreserved hepatocytes; type: in vitro ADME
Experimental: Accumulation of the majority of the radioactivity was found in the kidney and bladder irrespective of the labelled peptide dose; this is indicative of either non-saturable excretion or proteolysis followed by excretion through the kidneys. Furthermore, the intrinsic clearance of BT1718 and its Bicycle component, N241 was low when measured in cryopreserved hepatocytes. […] Unconjugated DM1, when radiolabelled, (as [[^3H]-DM1 (91 μCi/kg, 200 μg/kg, IV), was reported to distribute rapidly and extensively to the lungs, liver, kidney, spleen, heart, gastrointestinal tract, and adrenal glands in the rat. The major route of excretion of DM1 was through the bile/faeces, with a minimal amount excreted in the urine, a completely different distribution to BT1718 and its metabolites with little and short lived accumulation seen in other organs such as heart, liver, GI and lungs which would imply that these organs maybe spared systemic toxicity.

[9] = test system: catalytic domain of MT1-MMP; experiment: Binding to catalytic domain of MT1-MMP
Experimental: as §1, §2

[10] = test system: cell migration or invasion; experiment: Cell migration or invasion; type: cell-based
Experimental: as §1

[11] = test system: MMP15, MMP16, MMP24, MMP1, Pro-MMP1, MMP2; experiment: Binding to related MMP family members
Experimental: as §1, §2

atezolizumab: PD-1 checkpoint blockade agent
ORR (NSCLC): around 20%

nivolumab: PD-1 checkpoint blockade agent
ORR (NSCLC): around 20%

COc1cc2cc(c1Cl)N(C)C(=O)C[C@H](OC(=O)[C@H](C)N(C)C(=O)CCS)[C@]1(C)O[C@H]1[C@H](C)[C@@H]1C[C@@](O)(NC(=O)O1)[C@H](OC)/C=C/C=C(\C)C2 [DM1]
unbound fraction [1]: 3%
unbound fraction [2]: 7%
unbound fraction [3]: 7%
major route of excretion [4]: bile/faeces

T-DM1
ORR [5]: 31%

CC(=O)O[C@@]12CO[C@@H]1C[C@H](O)[C@@]1(C)C(=O)[C@H](O)C3=C(C)[C@@H](OC(=O)[C@H](O)[C@@H](NC(=O)OC(C)(C)C)c4ccccc4)C[C@@](O)([C@@H](OC(=O)c4ccccc4)[C@H]21)C3(C)C [docetaxel]
anti-tumor effect [6]: regression only in the docetaxel-sensitive model

CDX-011: Antibody-Drug Conjugate (ADC) against glycoprotein NMB
ORR (NMB selected tumors): 30%

C[C@H](NC(=O)CN(C)C(=O)CN(C)C(=O)CN(C)C(=O)CN(C)C(=O)CN(C)C(=O)CN(C)C(=O)CN(C)C(=O)CN(C)C(=O)CN(C)C(=O)CN(C)C(=O)CCN)C(=O)N[C@H]1CSCc2cc3cc(c2)CSC[C@H](NC(=O)[C@@H](C)NC(=O)[C@H](Cc2cccc4ccccc24)NC(=O)[C@H](CCC(=O)O)NC(=O)[C@H](CC(N)=O)NC(=O)[C@@H](C)NC1=O)C(=O)N[C@@H](CCC(=O)O)C(=O)N[C@@H](CC(=O)O)C(=O)N[C@@H](Cc1ccccc1)C(=O)N[C@@H](Cc1ccc(O)cc1)C(=O)N[C@@H](CC(=O)O)C(=O)N[C@@H](C(C)(C)C)C(=O)N[C@H](C(N)=O)CSC3 [N241] (H-[βAla][Sar][Sar][Sar][Sar][Sar][Sar][Sar][Sar][Sar][Sar]AC[dA]NE[1Nal][dA]CEDFYD[Tle]C-NH2; linker 13-19-26 via TBMB; N-terminus and C-terminus assumed)
impact on related MMP catalytic activity (MMP1, MMP2 and MMP9): no direct impact
positive responses in donor cohort [7]: 2%
impact on the catalytic activity of the protease (MT1-MMP): no direct impact
intrinsic clearance [8]: low
binding to the catalytic domain [9]: no binding
selectivity over catalytic domain of MT1-MMP [9]: at least 50 fold
impact on cell migration or invasion [10]: no direct impact
selectivity over other related-MMP hemopexin domains [11]: over 200 fold
binding toward closely related MMP family members ([11]; MMP15, MMP16, MMP24, MMP1, Pro-MMP1, MMP2): no binding

pembrolizumab: PD-1 checkpoint blockade agent
ORR (NSCLC): around 20%
